Values quoted from earlier work in US6004532A, “Formulation for Tin-^117m /diethylenetriaminepentaacetic acids” (Brookhaven Science Associates, priority 1998, dated 1999).

Tests used:
bone marrow = settings: for contamination and radiation cystitis risk: therapeutic doses

Compound	onset of pain relief (bone pain; pretreatment with androgen, after administration)	myelosuppression (bone marrow; human, in vivo)	contamination and radiation cystitis risk (bone marrow)	urinary excretion of radioactivity (therapeutic doses 35 to 210 mCi)	duration of pain relief (bone pain; human, in vivo)	onset of clinical benefit / pain relief (bone pain; human, in vivo)	onset of clinical benefit / symptom relief (frequently) (bone pain; human, in vivo) [h]	bone uptake and retention compared with ^32 P orthophosphate, ^153 Sm-EDTMP, ^186 Re-HEDP, and ^89 SrCl2 (human, in vivo)	palliation of bone pain (bone pain; Phase II pilot study, Atkins et al. (1995))	relief of bone pain in humans (bone pain; particular efficacy at about 9 to about 25 mCi per 70 kg, WO 95/29706)
O=[32P](O)(O)O [^32 P orthophosphate]	five to fourteen	–	–	–	–	–	–	–	–	–
O=P([O-])(O)CN(CCN(CP(=O)([O-])O)CP(=O)(O)O)CP(=O)([O-])O.[153Sm+3] [^153 Sm-EDTMP, ^153 Sm ethylenediaminetetramethylenephosphonate]	–	Reversible myelosuppression	creating contamination risks and potentially causing radiation cystitis	large amounts of radioactivity can be excreted in the patient's urine	four to forty	two	≤ 48	–	–	–
^117m Sn (Sn^4+) diethylenetriaminepentaacetic acid [^117m Sn (Sn^4+) DTPA]	–	–	less risk of contamination and radiation cystitis	–	–	–	–	higher bone uptake and retention	palliation of bone pain	dose-dependent relief of bone pain
